Test results reported in patent US20170007615A1, “Antibacterial Compounds” (priority 2014, published 2017).
Converted amounts (≈) assume the structure as drawn. Where two headings read alike, the source gives them in different places.

What was measured:
[1] = system: S. aureus (ATCC 29213); experiment: Antibacterial activity (MIC), Gram-positive type strain; assay type: cell-based, Staphylococcus aureus; conditions: Table 13; for MIC: Staphylococcus aureus, ATCC29213
[2] = system: N. gonorrheae (ATCC 49226); experiment: Antibacterial activity (MIC), Gram-negative type strain; assay type: cell-based, Neisseria gonorrhoeae; conditions: Table 13; for MIC: Neisseria gonorrhoeae, ATCC49226
[3] = system: H. influenzae (ATCC 49247); experiment: as above; assay type: cell-based, Haemophilus influenzae; conditions: Table 13; for MIC: Haemophilus influenzae, ATCC49247
[4] = system: E. faecalis (ATCC 29212); experiment: Antibacterial activity (MIC), Gram-positive type strain; assay type: cell-based, Enteroccocus faecalis; conditions: Table 13; for MIC: Enterococcus faecalis, ATCC29212
[5] = system: E. coli (ATCC 25922); conditions: for MIC of Compound (μg/ml) in the presence of PMBN (128 μg/ml): Table 1, (b) No effect; for MIC of Compound (μg/ml) in the presence of PMBN (32 μg/ml): Table 12, (b) No significant effect
[6] = system: E. coli (ATCC 25922); experiment: microbe, parasite or virus in culture; conditions: Escherichia coli
[7] = ATCC25922, read-out: MIC Compound alone, Table 1
[8] = ATCC25922, read-out: MIC Compound alone, Table 12

| Molecule | MIC [1] [mg/L] | MIC [2] [mg/L] | MIC [3] [mg/L] | MIC [4] [mg/L] | further results |
| --- | --- | --- | --- | --- | --- |
| CCNC(=O)Nc1nc2cc(-c3cnc(NS(=O)(=O)C[C@@H](N)Cc4ccccc4)nc3)cc(-c3ccc(C)cn3)c2s1 [Compound A-46, (S)-2-amino-N-(5-(2-(3-ethylureido)-7-(5-methylpyridin-2-yl)benzo[d]thiazol-5-yl)pyrimidin-2-yl)-3-phenylpropane-1-sulfonamide] | 1 (≈ 1.66 µM) | 0.06 (≈ 0.0995 µM) | 2 (≈ 3.32 µM) | 0.25 (≈ 0.415 µM) | – |
| CCNC(=O)Nc1nc2cc(-c3cnc(NS(=O)(=O)N4CC[C@H](O)C4)nc3)cc(-c3ccc(C)cn3)c2s1 [Compound A-60, (S)—N-(5-(2-(3-ethylureido)-7-(5-methylpyridin-2-yl)benzo[d]thiazol-5-yl)pyrimidin-2-yl)-3-hydroxypyrrolidine-1-sulfonamide] | 0.12 (≈ 0.216 µM) | ≤ 0.008 | 0.03 (≈ 0.0541 µM) | 0.06 (≈ 0.108 µM) | – |
| CCNC(=O)Nc1nc2cc(-c3cnc(NS(=O)(=O)N4CC(OC)C4)nc3)cc(-c3ccc(C)cn3)c2s1 [Compound A-50, N-(5-(2-(3-ethylureido)-7-(5-methylpyridin-2-yl)benzo[d]thiazol-5-yl)pyrimidin-2-yl)-3-methoxyazetidine-1-sulfonamide] | 0.5 (≈ 0.901 µM) | 0.25 (≈ 0.451 µM) | 4 (≈ 7.21 µM) | 0.03 (≈ 0.0541 µM) | – |
| CCNC(=O)Nc1nc2cc(-c3cnc(NS(=O)(=O)N4CCC(O)C4)nc3)cc(-c3ccc(C)cn3)c2s1 (stereo not drawn) [Compound A-54, N-(5-(2-(3-ethylureido)-7-(5-methylpyridin-2-yl)benzo[d]thiazol-5-yl)pyrimidin-2-yl)-3-hydroxypyrrolidine-1-sulfonamide] | 0.12 (≈ 0.216 µM) | ≤ 0.008 | 0.03 (≈ 0.0541 µM) | ≤ 0.008 | – |
| CCCS(=O)(=O)Nc1ncc(-c2cc(-c3ccccn3)c3sc(NC(=O)NCC)nc3c2)cn1 [Compound A-33, N-(5-(2-(3-ethylureido)-7-(pyridin-2-yl)benzo[d]thiazol-5-yl)pyrimidin-2-yl)propane-1-sulfonamide] | 0.25 (≈ 0.502 µM) | 0.03 (≈ 0.0603 µM) | 0.12 (≈ 0.241 µM) | 0.03 (≈ 0.0603 µM) | – |
| CCNC(=O)Nc1nc2cc(-c3cnc(NS(=O)(=O)C4CCCC4)nc3)cc(-c3ccccn3)c2s1 [Compound A-35, N-(5-(2-(3-ethylureido)-7-(pyridin-2-yl)benzo[d]thiazol-5-yl)pyrimidin-2-yl)cyclopentanesulfonamide] | ≤ 0.008 | ≤ 0.008 | 0.03 (≈ 0.0573 µM) | ≤ 0.008 | – |
| CCNC(=O)Nc1nc2cc(-c3cnc(NS(=O)(=O)N4CC[C@@H](N(C)C)C4)nc3)cc(-c3ccc(C)cn3)c2s1 [Compound A-57, (R)-3-(dimethylamino)-N-(5-(2-(3-ethylureido)-7-(5-methylpyridin-2-yl)benzo[d]thiazol-5-yl)pyrimidin-2-yl)pyrrolidine-1-sulfonamide] | 0.25 (≈ 0.43 µM) | 0.12 (≈ 0.206 µM) | 0.5 (≈ 0.86 µM) | 0.03 (≈ 0.0516 µM) | – |
| CCNC(=O)Nc1nc2cc(-c3cnc(NS(=O)(=O)N4CCCC4)nc3)cc(-c3ccccn3)c2s1 [Compound A-45, N-(5-(2-(3-ethylureido)-7-(pyridin-2-yl)benzo[d]thiazol-5-yl)pyrimidin-2-yl)pyrrolidine-1-sulfonamide] | 0.015 (≈ 0.0286 µM) | ≤ 0.008 | 0.06 (≈ 0.114 µM) | ≤ 0.008 | – |
| CCNC(=O)Nc1nc2cc(-c3cnc(NS(=O)(=O)CC)nc3)cc(-c3ccc(C)cn3)c2s1 [Compound A-47, N-(5-(2-(3-ethylureido)-7-(5-methylpyridin-2-yl)benzo[d]thiazol-5-yl)pyrimidin-2-yl)ethanesulfonamide] | 0.015 (≈ 0.0301 µM) | ≤ 0.008 | ≤ 0.008 | ≤ 0.008 | – |
| CCNC(=O)Nc1nc2cc(-c3cnc(NS(=O)(=O)CC)nc3)cc(-c3ccccn3)c2s1 [Compound A-36, N-(5-(2-(3-ethylureido)-7-(pyridin-2-yl)benzo[d]thiazol-5-yl)pyrimidin-2-yl)ethanesulfonamide] | 0.25 (≈ 0.517 µM) | ≤ 0.008 | 0.03 (≈ 0.062 µM) | ≤ 0.008 | – |
| CCNC(=O)Nc1nc2cc(-c3cnc(NS(=O)(=O)C4CC4)nc3)cc(-c3ccccn3)c2s1 [Compound A-34, N-(5-(2-(3-ethylureido)-7-(pyridin-2-yl)benzo[d]thiazol-5-yl)pyrimidin-2-yl)cyclopropanesulfonamide] | 0.25 (≈ 0.504 µM) | 0.015 (≈ 0.0303 µM) | 0.12 (≈ 0.242 µM) | 0.015 (≈ 0.0303 µM) | – |
| CCNC(=O)Nc1nc2cc(-c3cnc(N4CCCS4(=O)=O)nc3)cc(-c3ccccn3)c2s1 [Compound A-26, 1-(5-(2-(1,1-dioxidoisothiazolidin-2-yl)pyrimidin-5-yl)-7-(pyridin-2-yl)benzo[d]thiazol-2-yl)-3-ethylurea] | 0.06 (≈ 0.121 µM) | 0.25 (≈ 0.504 µM) | 0.5 (≈ 1.01 µM) | 0.06 (≈ 0.121 µM) | – |
| CCNC(=O)Nc1nc2cc(-c3cnc(NS(=O)(=O)NCC)nc3)cc(-c3ccc(C)cn3)c2s1 [Compound A-39, 1-ethyl-3-[5-[2-(ethylsulfamoylamino)pyrimidin-5-yl]-7-(5-methyl-2-pyridyl)-1,3-benzothiazol-2-yl]urea] | 0.015 (≈ 0.0293 µM) | 0.015 (≈ 0.0293 µM) | 0.03 (≈ 0.0585 µM) | ≤ 0.008 | – |
| N-(5-(2-(3-ethylureido)-7-(5-methylpyridin-2-yl)benzo[d]thiazol-5-yl)pyrimidin-2-yl)-N-methylmethanesulfonamide [Compound A-29] | – | – | – | – | MIC vs. S. aureus (ATCC 29213) [1]: 0.25 mg/L; MIC vs. N. gonorrheae (ATCC 49226) [2]: 0.25 mg/L; MIC vs. H. influenzae (ATCC 49247) [3]: 2 mg/L; MIC vs. E. faecalis (ATCC 29212) [4]: 0.06 mg/L |
| CCNC(=O)Nc1nc2cc(-c3cnc(NS(=O)(=O)C4CCN(C(C)=O)C4)nc3)cc(-c3ccc(C)cn3)c2s1 (stereo not drawn) [Compound A-58, 1-acetyl-N-(5-(2-(3-ethylureido)-7-(5-methylpyridin-2-yl)benzo[d]thiazol-5-yl)pyrimidin-2-yl)pyrrolidine-3-sulfonamide] | 2 (≈ 3.44 µM) | 0.03 (≈ 0.0517 µM) | 1 (≈ 1.72 µM) | 0.25 (≈ 0.431 µM) | – |
| CCNC(=O)Nc1nc2cc(-c3cnc(NS(=O)(=O)C(C)C)nc3)cc(-c3ccc(C)cn3)c2s1 [Compound A-48, N-(5-(2-(3-ethylureido)-7-(5-methylpyridin-2-yl)benzo[d]thiazol-5-yl)pyrimidin-2-yl)propane-2-sulfonamide] | 0.015 (≈ 0.0293 µM) | ≤ 0.008 | 0.03 (≈ 0.0586 µM) | ≤ 0.008 | – |
| CCNC(=O)Nc1nc2cc(-c3cnc(NS(=O)(=O)C4(CO)CC4)nc3)cc(-c3ccc(C)cn3)c2s1 [Compound A-55, N-(5-(2-(3-ethylureido)-7-(5-methylpyridin-2-yl)benzo[d]thiazol-5-yl)pyrimidin-2-yl)-1-(hydroxymethyl)cyclopropane-1-sulfonamide] | 0.12 (≈ 0.222 µM) | ≤ 0.008 | 0.03 (≈ 0.0556 µM) | ≤ 0.008 | – |
| CCNC(=O)Nc1nc2cc(-c3cnc(CNS(C)(=O)=O)nc3)cc(-c3ccc(C)cn3)c2s1 [Compound A-19, 1-ethyl-3-[5-[2-(methanesulfonamidomethyl)pyrimidin-5-yl]-7-(5-methyl-2-pyridyl)-1,3-benzothiazol-2-yl]urea] | – | – | – | – | MIC of Compound (μg/ml) in the presence of PMBN (128 μg/ml) [5]: <=.12 μg/ml; MIC [6, 7]: > 64 mg/L |
| CCNC(=O)Nc1nc2cc(-c3cc(C)n(Cc4cccc(C)n4)c(=O)c3)cc(-c3ccccn3)c2s1 [Compound A-2, 1-Ethyl-3-[5-[2-methyl-1-[(6-methyl-2-pyridyl)methyl]-6-oxo-4-pyridyl]-7-(2-pyridyl)-1,3-benzothiazol-2-yl]urea] | – | – | – | – | MIC of Compound (μg/ml) in the presence of PMBN (128 μg/ml) [5]: <=.12 μg/ml; MIC [6, 7]: > 64 mg/L |
| CC(C)(O/N=C(\C(=O)N[C@@H]1C(=O)N2C(C(=O)[O-])=C(C[n+]3ccccc3)CS[C@H]12)c1csc(N)n1)C(=O)O [Ceftazidime, reference compound] | – | – | – | – | MIC of Compound (μg/ml) in the presence of PMBN (32 μg/ml) [5]: 0.15 µg/mL; MIC [6, 8]: 0.6 mg/L (≈ 1.1 µM) |
| CN(C)[C@@H]1C(O)=C(C(N)=O)C(=O)[C@@]2(O)C(O)=C3C(=O)c4c(O)cccc4[C@@](C)(O)[C@H]3C[C@@H]12 [Tetracycline, reference compound] | – | – | – | – | MIC of Compound (μg/ml) in the presence of PMBN (32 μg/ml) [5]: 1^(b) μg/ml; MIC ([6]; ATCC25922, read-out: MIC Compound alone): 1 mg/L (≈ 2.25 µM) |
| NC[C@H]1O[C@H](O[C@H]2[C@H](O)[C@@H](O[C@H]3O[C@H](CO)[C@@H](O)[C@H](N)[C@H]3O)[C@H](N)C[C@@H]2N)[C@H](O)[C@@H](O)[C@@H]1O [Kanamycin, reference compound] | – | – | – | – | MIC of Compound (μg/ml) in the presence of PMBN (32 μg/ml) [5]: 4^(b) μg/ml; MIC [6, 8]: 8 mg/L (≈ 16.5 µM) |
| CCNC(=O)Nc1nc2cc(-c3cnc(NS(=O)(=O)C(C)(C)C)nc3)cc(N3CCN(CCN4CCCC4)CC3)c2s1 [Compound A-20, 1-[5-[2-(tert-butylsulfonylamino)pyrimidin-5-yl]-7-[4-(2-pyrrolidin-1-ylethyl)piperazin-1-yl]-1,3-benzothiazol-2-yl]-3-ethyl-urea] | – | – | – | – | MIC of Compound (μg/ml) in the presence of PMBN (128 μg/ml) [5]: 32 µg/mL; MIC [6, 7]: > 64 mg/L |
| CCNC(=O)Nc1nc2cc(-c3cccnc3)ccc2s1 [Example 1 Compound VI(a) (WO2009/074812), 1-ethyl-3-(5-pyridin-3-yl-benzothiazol-2-yl)-urea] | – | – | – | – | MIC of Compound (μg/ml) in the presence of PMBN (128 μg/ml) [5]: 8 µg/mL; MIC [6, 7]: > 64 mg/L |
| CCNC(=O)Nc1nc2c(-c3ccc(C)cn3)cc(-c3cnc(NS(=O)(=O)C(C)(C)C)nc3)cn2n1 [Compound A-101, 1-[6-[2-(tert-butylsulfonylamino)pyrimidin-5-yl]-8-(5-methyl-2-pyridyl)-[1,2,4]triazolo[1,5-a]pyridin-2-yl]-3-ethyl-urea] | – | – | – | – | MIC of Compound (μg/ml) in the presence of PMBN (128 μg/ml) [5]: 2 µg/mL; MIC [6, 7]: > 64 mg/L |
